≈ marks a conversion by molar mass, not a printed value.
Legend:
[1] = Half life in human hepatocytes at 1 uM measured up to 180 mins by LC-ESI-MS/MS analysis; type: ADME, cell-based, Hepatocyte
[2] = test system: Cytochrome P450; assay: Drug metabolism in human liver microsomes assessed as CYP450-mediated formation of [+O] metabolites at 1 uM after 60 mins in absence of NADPH by LC-MS analysis; type: ADME; conditions: 1 h
[3] = Tmax in Sprague-Dawley (RjHan:SD) rat at 3 mg/kg, po administered via gavage by LC-MS analysis; type: ADME, organism-based; conditions: in vivo
[4] = target: Cytochrome P450 3A4 (Homo sapiens, UniProt P08684); assay: Inhibition of recombinant human CYP3A4 expressed in supersomes using 7-benzyloxyquinoline as substrate by fluorescence method; type: ADME
[5] = Stability in human plasma at 10 uM measured over 240 mins by LC-ESI-MS/MS analysis; type: ADME, cell-free; conditions: 4 h
[6] = target: T1, Cytochrome P450 2C8 (Homo sapiens, UniProt P10632); assay: Inhibition of human CYP2C8 by fluorescence method; type: ADME
T1 sequence (P10632 whole entry): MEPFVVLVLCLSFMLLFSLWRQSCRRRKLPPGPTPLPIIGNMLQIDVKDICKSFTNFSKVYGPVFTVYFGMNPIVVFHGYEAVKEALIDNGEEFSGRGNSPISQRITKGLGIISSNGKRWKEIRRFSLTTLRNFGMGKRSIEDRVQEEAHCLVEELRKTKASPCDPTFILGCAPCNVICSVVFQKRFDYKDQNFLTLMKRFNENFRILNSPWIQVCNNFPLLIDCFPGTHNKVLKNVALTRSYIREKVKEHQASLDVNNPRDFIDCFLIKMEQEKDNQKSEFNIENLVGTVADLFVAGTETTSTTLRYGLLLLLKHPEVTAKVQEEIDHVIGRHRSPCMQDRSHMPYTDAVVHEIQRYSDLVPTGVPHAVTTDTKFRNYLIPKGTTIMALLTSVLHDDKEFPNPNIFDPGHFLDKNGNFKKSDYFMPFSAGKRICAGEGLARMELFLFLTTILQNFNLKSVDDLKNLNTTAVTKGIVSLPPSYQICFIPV

[7] = Intrinsic clearance in human hepatocytes assessed per million cells at 1 uM measured up to 180 mins by LC-ESI-MS/MS analysis; type: ADME, cell-based, Hepatocyte; conditions: read-out: CLH
[8] = Stability of compound in HEPES buffer assessed as parent compound remaining at 1 uM after 180 mins by LC-ESI-MS/MS analysis; type: physicochemical; conditions: read-out: Stability
[9] = target: T2, Bifunctional epoxide hydrolase 2 (Homo sapiens) (UniProt P34913); assay: Inhibition of N-terminal His-tagged recombinant human soluble epoxide hydrolase (2 to 555 residues) expressed in Sf21 insect cells at 10 uM using as 14,15-EET as substrate after 10 mins by reversed-phase HPLC assay relative to control
T2 sequence (whole entry): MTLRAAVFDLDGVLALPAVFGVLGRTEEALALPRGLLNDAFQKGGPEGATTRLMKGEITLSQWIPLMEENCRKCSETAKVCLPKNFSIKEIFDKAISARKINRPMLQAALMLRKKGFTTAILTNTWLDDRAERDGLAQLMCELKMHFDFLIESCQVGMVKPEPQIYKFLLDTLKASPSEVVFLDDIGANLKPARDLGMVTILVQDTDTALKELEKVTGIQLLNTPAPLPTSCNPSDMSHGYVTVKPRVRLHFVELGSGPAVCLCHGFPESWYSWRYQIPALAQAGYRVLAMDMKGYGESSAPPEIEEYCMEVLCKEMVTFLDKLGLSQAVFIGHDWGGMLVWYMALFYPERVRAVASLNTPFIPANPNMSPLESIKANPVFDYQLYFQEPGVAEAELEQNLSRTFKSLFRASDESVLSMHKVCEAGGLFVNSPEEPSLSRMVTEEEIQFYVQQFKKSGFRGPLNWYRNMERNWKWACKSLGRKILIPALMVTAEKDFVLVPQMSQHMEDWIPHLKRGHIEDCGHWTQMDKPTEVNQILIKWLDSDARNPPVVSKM

[10] = Protein binding in human plasma at 10 uM incubated for 60 mins by LC-ESI-MS/MS analysis; type: ADME, cell-free; conditions: read-out: PPB (converted)
[11] = target: Cytochrome P450 2C9 (Homo sapiens, UniProt P11712); assay: Inhibition of human CYP2C9 by fluorescence method; type: ADME
[12] = target: Cytochrome P450 2D6 (Homo sapiens, UniProt P10635); assay: Inhibition of human CYP2D6 by fluorescence method; type: ADME
[13] = Apparent permeability across basolateral to apical side in human Caco2 cells at 10 uM after 15 to 90 mins by LC-ESI-MS/MS analysis; type: ADME, cell-based; conditions: Caco-2
[14] = target: T3, Epoxide hydrolase 1/Bifunctional epoxide hydrolase 2 (Homo sapiens, UniProt P07099+P34913); assay: Drug metabolism in human liver microsomes assessed as microsomal/soluble epoxide hydrolase mediated formation of [+O + H2O] metabolites at 1 uM after 60 mins in absence of NADPH by LC-MS analysis; type: ADME; conditions: 1 h
T3 sequence (P07099 whole entry): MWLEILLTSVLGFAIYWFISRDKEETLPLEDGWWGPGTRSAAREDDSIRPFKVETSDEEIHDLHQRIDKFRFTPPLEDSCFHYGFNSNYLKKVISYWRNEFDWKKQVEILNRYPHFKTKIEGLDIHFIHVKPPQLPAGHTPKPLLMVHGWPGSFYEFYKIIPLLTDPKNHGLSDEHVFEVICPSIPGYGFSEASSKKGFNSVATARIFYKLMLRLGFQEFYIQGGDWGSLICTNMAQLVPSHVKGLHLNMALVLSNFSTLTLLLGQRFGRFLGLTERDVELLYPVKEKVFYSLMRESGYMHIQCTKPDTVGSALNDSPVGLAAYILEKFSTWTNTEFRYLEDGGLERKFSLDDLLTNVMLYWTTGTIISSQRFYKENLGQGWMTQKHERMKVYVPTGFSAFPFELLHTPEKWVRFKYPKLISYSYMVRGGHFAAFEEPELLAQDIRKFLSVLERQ
T3 sequence (P34913 whole entry): T2 sequence (whole entry)

[15] = Aqueous solubility of the compound in pH 7.4 potassium phosphate buffer at 2 mg after 1 to 24 hrs by RP-HPLC method; type: physicochemical; conditions: potassium phosphate buffer, read-out: solubility
[16] = Negative chronotropic activity in Wistar rat neonatal cardiomyocytes assessed as changes to basal beating rate after 7 mins by inverted microscopic method; type: functional
[17] = Apparent permeability across apical to basolateral side in human Caco2 cells at 10 uM after 15 to 90 mins by LC-ESI-MS/MS analysis; type: ADME, cell-based; conditions: Caco-2
[18] = Negative chronotropic activity in Wistar rat neonatal cardiomyocytes assessed as decrease in basal beating rate after 7 mins by inverted microscopic method; type: functional, cell-based
[19] = n-Octanol-Tris/phosphoric acid buffer buffer distribution coefficient, log D of the compound at pH 7.4 shaken for 30 mins and measured after 24 hrs by UV-HPLC method; type: physicochemical

Chain of Cytochrome P450 3A4 (P08684 whole entry): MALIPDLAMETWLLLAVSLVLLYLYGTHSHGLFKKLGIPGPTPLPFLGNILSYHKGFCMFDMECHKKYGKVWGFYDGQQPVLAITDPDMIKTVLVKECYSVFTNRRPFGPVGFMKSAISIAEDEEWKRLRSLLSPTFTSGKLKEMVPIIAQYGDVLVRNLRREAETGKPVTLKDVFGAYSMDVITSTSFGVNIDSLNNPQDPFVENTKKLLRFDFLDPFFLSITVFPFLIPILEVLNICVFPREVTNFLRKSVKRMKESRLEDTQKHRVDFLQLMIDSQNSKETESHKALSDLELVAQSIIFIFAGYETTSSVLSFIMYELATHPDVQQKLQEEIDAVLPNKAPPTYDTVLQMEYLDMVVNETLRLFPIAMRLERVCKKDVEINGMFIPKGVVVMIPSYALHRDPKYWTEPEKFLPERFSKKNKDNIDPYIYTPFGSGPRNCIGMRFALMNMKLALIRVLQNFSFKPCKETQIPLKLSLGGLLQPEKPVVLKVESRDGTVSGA
Chain of Cytochrome P450 2C9 (P11712 whole entry): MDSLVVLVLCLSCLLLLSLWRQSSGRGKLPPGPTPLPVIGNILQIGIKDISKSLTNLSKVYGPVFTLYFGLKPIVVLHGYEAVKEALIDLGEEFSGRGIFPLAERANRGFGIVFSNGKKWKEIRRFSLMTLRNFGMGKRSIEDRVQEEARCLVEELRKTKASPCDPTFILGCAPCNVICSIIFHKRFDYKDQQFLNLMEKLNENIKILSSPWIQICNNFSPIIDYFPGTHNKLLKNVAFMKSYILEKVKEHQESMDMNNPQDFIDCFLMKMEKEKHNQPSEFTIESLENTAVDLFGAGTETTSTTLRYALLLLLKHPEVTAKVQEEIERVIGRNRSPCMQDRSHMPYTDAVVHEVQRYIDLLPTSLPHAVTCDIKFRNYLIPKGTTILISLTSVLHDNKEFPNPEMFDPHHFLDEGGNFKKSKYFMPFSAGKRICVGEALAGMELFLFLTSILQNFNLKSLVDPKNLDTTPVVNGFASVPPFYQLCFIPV
Chain of Cytochrome P450 2D6 (P10635 whole entry): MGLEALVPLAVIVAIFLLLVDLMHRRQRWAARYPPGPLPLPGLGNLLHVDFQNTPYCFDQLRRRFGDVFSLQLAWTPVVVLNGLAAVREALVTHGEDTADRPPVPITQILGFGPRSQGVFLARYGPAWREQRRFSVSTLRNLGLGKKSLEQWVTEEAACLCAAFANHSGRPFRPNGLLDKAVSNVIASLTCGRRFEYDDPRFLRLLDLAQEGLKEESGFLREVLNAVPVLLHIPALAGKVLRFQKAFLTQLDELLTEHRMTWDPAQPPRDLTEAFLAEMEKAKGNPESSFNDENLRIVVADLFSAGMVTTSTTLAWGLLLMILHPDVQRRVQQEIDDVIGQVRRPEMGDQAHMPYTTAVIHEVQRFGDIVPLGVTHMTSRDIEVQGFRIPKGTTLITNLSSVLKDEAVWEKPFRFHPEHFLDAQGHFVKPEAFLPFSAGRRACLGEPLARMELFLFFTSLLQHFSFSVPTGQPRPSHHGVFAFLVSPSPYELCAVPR

half-life at 1 µM [1] | Drug metabolism [2] | Tmax [3] | IC50 [4] | Stability [5] | IC50 [6] | hepatocyte CLint at 1 µM [7] | remaining at 3 h, 1 µM [8] | inhibition [9] | fraction unbound at 1 h, 10 µM [10] | IC50 [11] | IC50 [12] | Papp B→A at 10 µM [13] | Drug metabolism [14] | solubility [15] | Papp A→B at 10 µM [17] | logD [19] | SMILES | Emax [16] | EC50 [18]
3.02 h | Metabolite_Notdetected | 2 h | 4.7 µM | Stable | > 50 µM | 4.77 µL/min/1e6 cells | 104% | 1.9% | 0.0003 | 5.4 µM | 43.2 µM | 8 ×10⁻⁶ cm/s | Metabolite_Notdetected | 40 µg/mL (≈ 106 µM) | 10 ×10⁻⁶ cm/s | 2.35 | CNC(=O)C(=O)NCCCC/C=C\CCCCCCCCCc1nnn[nH]1 | 37.1 bpm | 0.00115 µM
0.874 h | Metabolite_Notdetected | 1.6 h | > 50 µM | Stable | > 50 µM | 16.5 µL/min/1e6 cells | 85.3% | -8.3% | 0.0009 | > 50 µM | > 50 µM | 2.3 ×10⁻⁶ cm/s | Metabolite_Notdetected | 80 µg/mL (≈ 226 µM) | 5.3 ×10⁻⁶ cm/s | 2.01 | CNC(=O)C(=O)NCCCC/C=C\CCCCCCCCCC(=O)O | 38.2 bpm | 0.00569 µM
5.83 h | Metabolite_Notdetected | 1.6 h | > 50 µM | Stable | > 50 µM | 2.48 µL/min/1e6 cells | 102% | 0.8% | 0.0063 | > 50 µM | > 50 µM | 15.8 ×10⁻⁶ cm/s | Metabolite_Notdetected | 1960 µg/mL (≈ 5500 µM) | 28.2 ×10⁻⁶ cm/s | -0.03 | CNC(=O)C(=O)NCCCC/C=C\CCCCCCCOCC(=O)O | 36.7 bpm | 0.00141 µM

Source: ChEMBL document CHEMBL4414645, “Development of Robust 17(R),18(S)-Epoxyeicosatetraenoic Acid (17,18-EEQ) Analogues as Potential Clinical Antiarrhythmic Agents” (J Med Chem, 2019)
